Our source for the EC50 and CC50 values is article PMC10893357 (Viruses, 2024).

Assay type in all cases: cell-based
The subject of series [1] is SARS-CoV-2 Delta, lineage B.1.617.2 hCoV-19/Russia/PSK-2804/2021. As to the kind of experiment: Antiviral CPE reduction assay in Vero E6 cells, Delta. Particulars: Severe acute respiratory syndrome coronavirus 2, Vero C1008, 96 h.
For series [2], the system named is SARS-CoV-2 Omicron lineage BQ.1.1 hCoV-19/Russia/TOM-SRC-8663/2023. As to the kind of experiment: Antiviral CPE reduction assay in Vero E6 cells, Omicron BQ.1.1. Particulars: Severe acute respiratory syndrome coronavirus 2, Vero C1008, 96 h.
Series [3] relates to SARS-CoV-2 Wuhan, lineage B.1.1 hCoV-19/Russia/Omsk202118_1707/2020. As to the kind of experiment: Antiviral CPE reduction assay in Vero E6 cells, Wuhan. Particulars: Severe acute respiratory syndrome coronavirus 2, Vero C1008, 96 h.
Series [4] is described as follows: Cytotoxicity (MTT) in Vero E6 cells. Particulars: African green monkey.
The subject of series [5] is SARS-CoV-2 Omicron, XBB 1.5 hCoV-19/Russia/SAK-SRC-8527/2023. In words: Antiviral CPE reduction assay in Vero E6 cells, Omicron XBB.1.5. Particulars: Severe acute respiratory syndrome coronavirus 2, Vero C1008, 96 h.
Series [6] has as its system SARS-CoV-2 Omicron, BA.1 hCoV-19/Russia/Moscow171619-031221/2021. As to the kind of experiment: Antiviral CPE reduction assay in Vero E6 cells, Omicron BA.1. Particulars: Severe acute respiratory syndrome coronavirus 2, Vero C1008, 96 h.
Series [7] deals with SARS-CoV-2 Omicron, BA 5.2 hCov-19/Russia/Moscow-49415/2022. In words: Antiviral CPE reduction assay in Vero E6 cells, Omicron BA.5.2. Particulars: Severe acute respiratory syndrome coronavirus 2, Vero C1008, 96 h.

By EC50 is commonly meant the concentration needed to bring the measured effect to its halfway point. The CC50 is the concentration that lowers cell viability or growth by half.

For the compound `CCC(CC)COC(=O)[C@H](C)N[P@](=O)(OC[C@H]1O[C@@](C#N)(c2ccc3c(N)ncnn23)[C@H](O)[C@@H]1O)Oc1ccccc1` [Remdesivir, reference compound], the EC50 in series [1] turned out to be 2.1 ± 0.16 µM; in series [2] it was 3.13 ± 0.9 µM; in series [3] it was 3.8 ± 0.42 µM; in series [5], 2.65 ± 0.6 µM; in series [6], 2 ± 0.13 µM; in series [7], 4.45 ± 1 µM. Further, the CC50 at 4 days in series [4] worked out at 711 ± 21.2 µM.

Consider `CC(=O)C1=C(O)C=C2Oc3c(-c4csc(N/N=C/c5ccc(Br)s5)n4)c(O)c(C)c(O)c3[C@@]2(C)C1=O` [(+)-3e], for which the EC50 worked out at 41.5 ± 3.1 µM in series [1]; 32.2 ± 2.6 µM in series [2]; 25.3 ± 2.2 µM in series [3]; 22.4 ± 2 µM in series [5]; 20.7 ± 1.6 µM in series [6]; 20 ± 1.6 µM in series [7]. In series [4], this compound yielded a CC50 at 4 days of 350 ± 21.2 µM.
